# Assay results from ChEMBL document CHEMBL1201862, “PubChem BioAssay data set” (2004).
#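 Cultured in 96-well plates, cells were exposed to test compound for 48 hours across five concentrations. GI50 is the concentration that inhibits growth by half.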 Active and inactive are the calls of the source. Rule as the data show it: active = GI50 up to about 1.1 µM and inactive = higher.
# Key:
# Experiment in all cases: growth of human tumour cells (NCI), 48 h
# PC-3 = system: PC-3
# LOX IMVI = system: LOX IMVI
# IGROV-1 = system: IGROV-1
# A549 = system: A549
# NCI-H460 = system: NCI-H460
# NCI-H23 = system: NCI-H23
# MCF7 = system: MCF7
# HT-29 = system: HT-29
# EKVX = system: EKVX
# SF-539 = system: SF-539
# COLO 205 = system: COLO 205
# Hs-578T = system: Hs-578T
# SNB-19 = system: SNB-19
# SK-MEL-28 = system: SK-MEL-28
# SK-MEL-5 = system: SK-MEL-5
# HOP-62 = system: HOP-62
# Malme-3M = system: Malme-3M
# SR = system: SR
# OVCAR-3 = system: OVCAR-3
# M14 = system: M14
# UACC-257 = system: UACC-257
# SK-MEL-2 = system: SK-MEL-2
# KM12 = system: KM12
# HOP-92 = system: HOP-92
# OVCAR-4 = system: OVCAR-4
# ACHN = system: ACHN
# MOLT-4 = system: MOLT-4
# BT-549 = system: BT-549
# UO-31 = system: UO-31
# NCI-H522 = system: NCI-H522
# U-251 = system: U-251
# TK-10 = system: TK-10
# T47D = system: T47D
# CAKI-1 = system: CAKI-1
# NCI-H226 = system: NCI-H226
# CCRF-CEM = system: CCRF-CEM
# SW-620 = system: SW-620
# 786-0 = system: 786-0
# MDA-MB-435 = system: MDA-MB-435
# SK-OV-3 = system: SK-OV-3
# UACC-62 = system: UACC-62
# MDA-N = system: MDA-N
# HCC 2998 = system: HCC 2998
# HCT-116 = system: HCT-116
# SF-295 = system: SF-295
# RXF 393 = system: RXF 393
# A498 = system: A498
# RPMI-8226 = system: RPMI-8226
# MDA-MB-231 = system: MDA-MB-231
# SF-268 = system: SF-268
# OVCAR-5 = system: OVCAR-5
# OVCAR-8 = system: OVCAR-8
# DU-145 = system: DU-145
# HCT-15 = system: HCT-15
# SNB-75 = system: SNB-75
# HL-60 = system: HL-60
# SN12C = system: SN12C
# NCI/ADR-RES = system: NCI/ADR-RES
# K562 = system: K562
smiles,measurement,setting,value
COc1ccccc1NC1Oc2cc3c(cc2C(c2cc(OC)c(OC)c(OC)c2)C1C)OCO3 (stereo not drawn),GI50,PC-3,1.12 µM (active)
same,GI50,LOX IMVI,6.62 µM (inactive)
same,GI50,IGROV-1,3.24 µM (inactive)
same,GI50,A549,4.53 µM (inactive)
same,GI50,NCI-H460,4.09 µM (inactive)
same,GI50,NCI-H23,4.46 µM (inactive)
same,GI50,MCF7,2.65 µM (inactive)
same,GI50,HT-29,2.11 µM (inactive)
same,GI50,EKVX,> 26.1 µM (inactive)
same,GI50,SF-539,1.7 µM (inactive)
same,GI50,COLO 205,1.95 µM (inactive)
same,GI50,Hs-578T,6.44 µM (inactive)
same,GI50,SNB-19,6.56 µM (inactive)
same,GI50,SK-MEL-28,> 25.1 µM (inactive)
same,GI50,SK-MEL-5,0.769 µM (active)
same,GI50,HOP-62,5.26 µM (inactive)
same,GI50,Malme-3M,0.383 µM (active)
same,GI50,SR,1.03 µM (active)
same,GI50,OVCAR-3,1.52 µM (inactive)
same,GI50,M14,3.26 µM (inactive)
same,GI50,UACC-257,8.17 µM (inactive)
same,GI50,SK-MEL-2,5.85 µM (inactive)
same,GI50,KM12,1.43 µM (inactive)
same,GI50,HOP-92,3.24 µM (inactive)
same,GI50,OVCAR-4,6.37 µM (inactive)
same,GI50,ACHN,9.91 µM (inactive)
same,GI50,MOLT-4,3.8 µM (inactive)
same,GI50,BT-549,2.84 µM (inactive)
same,GI50,UO-31,3.58 µM (inactive)
same,GI50,NCI-H522,1.45 µM (inactive)
same,GI50,U-251,2.92 µM (inactive)
same,GI50,TK-10,> 100 µM (inactive)
same,GI50,T47D,5.86 µM (inactive)
same,GI50,CAKI-1,2.22 µM (inactive)
same,GI50,NCI-H226,4.35 µM (inactive)
same,GI50,CCRF-CEM,2.37 µM (inactive)
same,GI50,SW-620,1.19 µM (inactive)
same,GI50,786-0,3.5 µM (inactive)
same,GI50,MDA-MB-435,0.242 µM (active)
same,GI50,SK-OV-3,10.5 µM (inactive)
same,GI50,UACC-62,1.53 µM (inactive)
same,GI50,MDA-N,0.358 µM (active)
same,GI50,HCC 2998,3.04 µM (inactive)
same,GI50,HCT-116,2.42 µM (inactive)
same,GI50,SF-295,0.689 µM (active)
same,GI50,RXF 393,1.14 µM (inactive)
same,GI50,A498,4.9 µM (inactive)
same,GI50,RPMI-8226,1.93 µM (inactive)
same,GI50,MDA-MB-231,1.78 µM (inactive)
same,GI50,SF-268,3.62 µM (inactive)
same,GI50,OVCAR-5,6.64 µM (inactive)
same,GI50,OVCAR-8,4.69 µM (inactive)
same,GI50,DU-145,4.75 µM (inactive)
same,GI50,HCT-15,3.06 µM
same,GI50,SNB-75,0.951 µM (active)
same,GI50,HL-60,0.612 µM (active)
same,GI50,SN12C,5.57 µM (inactive)
same,GI50,NCI/ADR-RES,2.59 µM (inactive)
same,GI50,K562,0.875 µM (active)
O=C1Nc2ccc([N+](=O)[O-])cc2/C1=N/NC(=S)Nc1ccc([N+](=O)[O-])cc1,GI50,PC-3,24.2 µM (inactive)
same,GI50,LOX IMVI,22.2 µM (inactive)
same,GI50,IGROV-1,17.7 µM (inactive)
same,GI50,A549,21.1 µM (inactive)
same,GI50,NCI-H460,19.7 µM (inactive)
same,GI50,NCI-H23,19.9 µM (inactive)
same,GI50,MCF7,25.4 µM (inactive)
same,GI50,HT-29,26.7 µM (inactive)
same,GI50,EKVX,26.2 µM (inactive)
same,GI50,SF-539,29.4 µM (inactive)
same,GI50,COLO 205,36 µM (inactive)
same,GI50,Hs-578T,51.9 µM (inactive)
same,GI50,SNB-19,26.2 µM (inactive)
same,GI50,SK-MEL-28,26.5 µM (inactive)
same,GI50,SK-MEL-5,15.8 µM (inactive)
same,GI50,HOP-62,22.6 µM (inactive)
same,GI50,Malme-3M,33.3 µM (inactive)
same,GI50,SR,30.2 µM (inactive)
same,GI50,OVCAR-3,22.9 µM (inactive)
same,GI50,M14,19.6 µM (inactive)
same,GI50,UACC-257,20.8 µM (inactive)
same,GI50,SK-MEL-2,18.5 µM (inactive)
same,GI50,KM12,18.6 µM (inactive)
same,GI50,HOP-92,18.5 µM (inactive)
same,GI50,OVCAR-4,19.3 µM (inactive)
same,GI50,ACHN,24.8 µM (inactive)
same,GI50,MOLT-4,35.9 µM (inactive)
same,GI50,BT-549,16.4 µM (inactive)
same,GI50,UO-31,18 µM (inactive)
same,GI50,NCI-H522,30.9 µM (inactive)
same,GI50,U-251,23.7 µM (inactive)
same,GI50,TK-10,24.7 µM (inactive)
same,GI50,T47D,19.1 µM (inactive)
same,GI50,CAKI-1,21.6 µM (inactive)
same,GI50,NCI-H226,27.9 µM (inactive)
same,GI50,CCRF-CEM,18.7 µM (inactive)
same,GI50,SW-620,39.2 µM (inactive)
same,GI50,786-0,16.9 µM (inactive)
same,GI50,MDA-MB-435,18.4 µM (inactive)
same,GI50,SK-OV-3,22.4 µM (inactive)
same,GI50,UACC-62,21.1 µM (inactive)
same,GI50,MDA-N,17.9 µM (inactive)
same,GI50,HCC 2998,20.9 µM (inactive)
same,GI50,HCT-116,20.4 µM (inactive)
same,GI50,SF-295,19.8 µM (inactive)
same,GI50,RXF 393,17.5 µM (inactive)
same,GI50,A498,18.2 µM (inactive)
same,GI50,RPMI-8226,34.9 µM (inactive)
same,GI50,MDA-MB-231,24.7 µM (inactive)
same,GI50,SF-268,32.6 µM (inactive)
same,GI50,OVCAR-5,28.7 µM (inactive)
same,GI50,OVCAR-8,31.5 µM (inactive)
same,GI50,DU-145,21.5 µM (inactive)
same,GI50,HCT-15,19 µM
same,GI50,SNB-75,21.8 µM (inactive)
same,GI50,HL-60,26.7 µM (inactive)
same,GI50,SN12C,32.3 µM (inactive)
same,GI50,NCI/ADR-RES,20.5 µM (inactive)
same,GI50,K562,34.2 µM (inactive)
